One may read the IC50 as the concentration needed to halve the response being measured.

The structures appear in SMILES notation. Read-outs that look alike come from different tables or passages of the source.

These results are taken from publication PMC10975076, “Trypanocidal and Anti-Inflammatory Effects of Three ent-Kaurane Diterpenoids from Gymnocoronis spilanthoides var. subcordata (Asteraceae)” (Pharmaceutics, 2024).

For data set [1], the system named is T. cruzi epimastigotes (RA strain). The data set is described as follows: In vitro activity against epimastigotes, [3H]-thymidine uptake assay. As to conditions: Trypanosoma cruzi. In kind it is cell-based.
The subject of data set [2] is T. cruzi amastigotes (Tulahuen strain expressing β-galactosidase). The data set is described as follows: In vitro activity against amastigotes in infected Vero cells, β-galactosidase/CPRG readout. It is filed as cell-based. To be noted: Trypanosoma cruzi, 120 h, intracellular amastigotes in Vero cells, 5 days. Here is the method: Cultures of Trypanosoma cruzi epimastigotes (RA strain) were maintained through weekly passages in LIT medium supplemented with 10% fetal bovine serum at 28 °C. Trypanosoma cruzi bloodstream trypomastigotes (RA strain) were obtained from infected CF1 mice by cardiac puncture 15 days after infection at the peak of parasitemia while transfected trypomastigotes expressing β-galactosidase (Clone C4, e Tulahuen strain) were obtained from infected Vero cells.
The activity of compounds 1–3 on the intracellular forms of T. cruzi was evaluated. Vero cells (5 × 10^3/well) were infected with culture-derived trypomastigotes of T. cruzi from the Tulahuen strain expressing β-galactosidase (MOI: 10). After an O.N. incubation at 37 °C, and 5% CO2, non-infecting parasites were washed out and infected cells were incubated with increasing concentrations of the compounds (0.001–50 µg/mL). Cells treated with DMSO or benznidazole and non-infected cells were included as controls. After 5 days, cells were lysed with 1% Nonidet P-40, and chlorophenol red-β-D-galactopyranoside (CPRG) (100 μM) was added as a substrate for the β-galactosidase enzyme. The plate was then incubated for 4 h at 37 °C and β-galactosidase activity was determined by measuring the absorbance at 570 nm. The percentage of inhibition for each concentration of compounds was calculated as: 100 − {[(absorbance of treated infected cells)/(absorbance of untreated infected cells)] × 100}.

A short description of data set [3]: Cytotoxicity assay on splenocytes, propidium iodide flow cytometry. As to conditions: BALB/c, mouse, murine splenocytes. In kind it is cell-based, mice. On the procedure:
The cytotoxicity of the isolated compounds was evaluated using splenocytes obtained from BALB/c mice. Primary cell cultures (1.5 × 10^5) were incubated with different concentrations of the isolated phytochemicals (5–200 μg/mL) in RPMI medium supplemented with 10% fetal bovine serum. After 48 h of incubation at 37 °C (5% CO2), the cells were harvested, washed once with PBS and stained with 2.5 μg/mL propidium iodide (PI) for 5 min at room temperature. Subsequently, cell death was assessed via flow cytometry using a BD FACSaria II cytometer. Cells incubated with DMSO were used as 100% viability control, and the death percentage was calculated according to the following formula: {1 − [(% PI^− cells treated)/(% PI^− cells of the viability control)] × 100}.
Background: Flow cytometry measures light scatter and fluorescence of single cells or particles in a stream.

The subject of data set [4] is T. cruzi (RA strain) infection in BALB/c mice. The data set is described as follows: In vivo trypanocidal activity in murine model of T. cruzi infection. Also on record: species or system Trypanosoma cruzi. As to conditions: for Hazard ratio (logrank) vs vehicle: Kaplan–Meier survival; for decrease in the area under the parasitemia curve (AUC): fold vs untreated control group.

For another data set, the system named is T. cruzi epimastigotes. The experiment in a line: Transmission electron microscopy of treated epimastigotes. It is filed as cell-based, Trypanosoma cruzi. To be noted: 20 µM. On the procedure:
All procedures were carried out according to Brengio et al.. Epimastigotes from T. cruzi were treated with 20 µM of compound 1 for either 48 h or 72 h. Then, the parasites were centrifuged at 1000× g for 10 min and fixed with 2.5% glutaraldehyde. Subsequently, they were washed three times with PBS and postfixed overnight with 2% OsO4. After washing twice with PBS, cells were stained with 1% uranyl acetate. The samples were dehydrated sequentially in ethanol and acetone and embedded in Epon 812. Ultrathin slices of 60 nm were obtained using an automatic Leica-ultracut R ultramicrotome and observed with a Microscope Zeiss EM900 (Zeiss, Oberkochen, Germany).

Data set [5] concerns type-I Interferon (IFN) pathway, RAW-Lucia ISG cells. The data set is described as follows: Type-I interferon reporter assay in RAW-Lucia ISG cells, Lucia luciferase. It is filed as cell-based, murine. As to conditions: 24 h. Here is the method:
The effect of compound 1 on a type-I Interferon (IFN) reporter cell line stimulated with LPS was studied. RAW-Lucia cells express the Lucia luciferase enzyme under the control of the ISG54 promoter that responds to an IFN-stimulated response element, which is activated by several Interferon Regulatory Factors (IRFs).
RAW-Lucia ISG cells I (InvivoGen, San Diego, CA, USA) (100 μL) were cultured (100,000 cells/well) with DMEM at 37 °C in a 5% CO2 atmosphere to be stimulated with LPS (0.5 µg/mL) or a combination of LPS and compound 1 (1 and 10 µg/mL). Unstimulated cells were included as controls. After a 24 h incubation, the supernatants of each well were collected in order to quantify the luciferase activity by measuring the luminescence generated after the addition of the QUANTI-Luc reagent (InvivoGen) according to the manufacturer’s instructions with a PerkinElmer Victor3 luminometer.

For another data set, the system named is NF-kB, RAW-Blue cells. The data set is described as follows: NF-kB reporter assay in RAW-Blue cells, SEAP activity. It is filed as cell-based, murine. As to conditions: 24 h. On the procedure:
The effect of compound 1 was evaluated on a cell line that secretes alkaline phosphatase as a surrogate marker for the secretion of NF-kB. RAW-Blue cells (InvivoGen) (100 μL) were seeded in a 96-well plate (100,000 cells/well) with DMEM at 37 °C in a 5% CO2 atmosphere. […] Untreated cells were included as controls. The supernatants were collected and absorbance at 620–655 nm was measured after the addition of the Quanti-Blue reagent (InvivoGen) in a microplate reader. Levels of NF-kB were calculated following the manufacturer’s instructions.

In data set [6] the test system is nitric oxide production, Raw-Blue cells. The data set is described as follows: Nitric oxide production, Griess reaction on RAW-Blue supernatants. In kind it is cell-based, murine. On the procedure:
The Griess reaction assay was performed to determine the effect of compound 1 on Nitric Oxide production. The same supernatant samples obtained in Section 2.8.2 (50 µL) were combined with 100 µL of Griess reagent. After incubation at room temperature for 30 min, absorbance was measured at 540 nm. A calibration curve was constructed with 1–250 µM of […] to extrapolate the nitrite concentration in the tested samples.

Data set [7] concerns TNF secretion, Raw-Blue macrophages. The data set is described as follows: TNF in RAW-Blue supernatants, capture ELISA. In kind it is cell-based, murine. To be noted: 24 h. Here is the method:
(§1) The production of the cytokines IL-10 and TNF was also determined in cell supernatant from these samples with an ELISA assay (R&D System, Minneapolis, MN, USA; BD Pharmingen, Franklin Lakes, NJ, USA).
On the technique in general: In an ELISA, binding on a coated surface is turned into a signal by an enzyme label.

In data set [8] the test system is IL-10 production, Raw-Blue macrophages. The experiment in a line: IL-10 in RAW-Blue supernatants, ELISA. In kind it is cell-based, murine. As to conditions: increasing concentrations (1, 10 µg/mL), 24 h, dose-dependent. On the procedure: as §1
Data set [9] relates to iNOS expression and NO production. Also on record: method as in doi:10.7324/JAPS.2023.95766. As to conditions: cited from earlier work.
Where [10] appears, read: T. cruzi epimastigotes, 72 h incubation, read-out: IC50 ± SEM Epimastigotes.
[11] abbreviates: T. cruzi epimastigotes, 72 h incubation, value in brackets, read-out: IC50 Epimastigotes (converted).
Where [12] appears, read: read-out: IC50 ± SEM Amastigotes.
Where [13] appears, read: value in brackets, read-out: IC50 Amastigotes (converted).
The mark [14] stands for this setting: primary splenocytes, read-out: CC50 µg/mL ± SEM.
[15] abbreviates: primary splenocytes, read-out: CC50.
Setting [16] is: infected BALB/c mice, 1 mg/kg/day i.p. each for 5 days.
[17] abbreviates: LPS 0.5 µg/mL, 1 or 10 µg/mL compound.

Consider `C=C1C(=O)[C@@]23CC[C@H]4[C@@](C)(CCC[C@@]4(C)C(=O)O)[C@@H]2[C@@H](O)C[C@@H]1C3` (single isomer, unassigned; ent-11) [Compound 3, ent-11α-hydroxy-15-oxo-kaur-16-en-19-oic acid], for which the IC50 in data set [1] (setting [10]) is 1.6 ± 0.6 µg/mL; in [1] (setting [11]), 4.8 µM; in [2] (setting [12]), 20.1 ± 8.2 µg/mL; in data set [2] (setting [13]), 60.6 µM. In addition, the figures for the CC50 at 48 h in data set [3] (read-out: CC50 µg/mL ± SEM) and in data set [3] (read-out: CC50) were 4.9 ± 1.6 µg/mL and 14.8 µM, respectively.
On to `O=C(Cn1ccnc1[N+](=O)[O-])NCc1ccccc1` [Benznidazole, benznidazole, reference compound], for which the half-maximal inhibitory concentration (IC50) is 4.2 µM in data set [1] (72 h, read-out: IC50 Epimastigotes); 1.08 ± 0.2 µg/mL in data set [1] (72 h, read-out: IC50 ± SEM Epimastigotes); 0.5 ± 0.04 µg/mL in data set [2] (setting [12]); 1.9 µM in [2] (setting [13]). Besides, the results for the CC50 at 48 h in data set [3] (setting [14]) and in data set [3] (setting [15]) were 45.3 ± 1.8 µg/mL and 81.5 µM, respectively. Moreover, the “mice remaining alive at the end of the acute infection phase” value in data set [4] (1 mg/kg/day i.p. each for 5 days) was “none”. In addition, the “Hazard ratio (logrank) vs vehicle” value in [4] (1 mg/kg/day i.p. for 5 days) came out at 1.1. Moreover, the “decrease in the area under the parasitemia curve (AUC)” value in data set [4] (setting [16]) is listed as 1.6.
For the molecule `C=C1C(=O)[C@@]23CC[C@@H]4[C@](C)(C(=O)O)CCC[C@@]4(C)[C@]2(O)[C@@H](O)C[C@@H]1C3` (single isomer, unassigned; ent-9) [Compound 1, ent-9α,11α-dihydroxy-15-oxo-kaur-16-en-19-oic acid], the IC50 in data set [1] (setting [10]) is 3.7 ± 0.5 µg/mL; in [1] (setting [11]) it was 10.6 µM; in data set [2] (setting [12]) it was 2.1 ± 0.3 µg/mL; in [2] (setting [13]) it was 6.1 µM. Moreover, the CC50 at 48 h is 112 ± 3.4 µg/mL in [3] (setting [14]) and 322 µM in data set [3] (setting [15]). The “ultrastructural effect on epimastigotes (TEM)” value is given as “formation of abnormal cytosolic membranous structures” in the data set on T. cruzi epimastigotes (48 h) and “Abnormal cytosolic membranous structures” with T. cruzi epimastigotes (72 h). For the same molecule, the “Lucia luciferase activity after LPS stimulation” value in [5] (setting [17]) is reported as “reduction in enzymatic activity”. For the same molecule, in [5] (unstimulated control cells, 1 or 10 µg/mL), the “basal Lucia luciferase activity” value is on record as “did not affect the basal levels of Lucia luciferase activity”. Also, the “NF-kB activation by TLR agonists (SEAP activity)” value in the data set with NF-kB, RAW-Blue cells (CpG 100 µg/mL, Poly(I:C) 100 µg/mL or LPS 0.5 µg/mL, compound 2.5 µg/mL) is listed as “significantly inhibit NF-kB activation”. Further, in the data set on NF-kB, RAW-Blue cells (setting [17]), the “LPS-mediated activation of NF-kB (SEAP activity)” value is listed as “dose-dependent inhibition”. Further, the “nitric oxide production (nitrite) with TLR ligands” value in data set [6] (CpG 100 µg/mL, Poly(I:C) 100 µg/mL or LPS 0.5 µg/mL, compound 2.5 µg/mL, 24 h) is recorded as “significant decrease in nitric oxide production”. In addition, the “nitric oxide production (nitrite levels) after LPS” value in [6] (LPS-stimulated Raw-Blue macrophages, dose-dependent) is listed as “significantly inhibited nitric oxide production”. In data set [7] (LPS 0.5 µg/mL, 1 and 10 µg/mL compound), the “TNF levels after LPS stimulation” value is listed as “significantly reduced”. Also, in data set [7] (without LPS, increasing concentrations (1, 10 µg/mL)), the “basal levels of TNF” value is listed as “significant decrease in the basal levels of TNF”. The “IL-10 production and secretion” value in data set [8] was “increase in the production and secretion of IL-10”. In addition, in data set [4] (1 mg/kg/day i.p. for 5 days), the “Hazard ratio (logrank) vs vehicle” value was determined as 0.9. The “decrease in the area under the parasitemia curve (AUC)” value in data set [4] (setting [16]) is recorded as “two-fold”. Also, the parasitemia levels entry in [4] (infected BALB/c mice, 1 mg/kg/day i.p. for 5 days, vs vehicle) is “significant decrease in parasitemia levels”. The “iNOS expression and NO production in vitro” value in [9] was “inhibit iNOS expression and NO production”.
In the case of `C[C@H]1C(=O)[C@@]23CC[C@H]4[C@@](C)(CCC[C@@]4(C)C(=O)O)[C@@H]2[C@@H](O)C[C@@H]1C3` [Compound 2, (16R)-ent-11α-hydroxy-15-oxokauran-19-oic acid], the concentration for half-maximal inhibition (IC50) in [1] (setting [10]) is 5.2 ± 0.3 µg/mL; in data set [1] (setting [11]) it was 15.9 µM; in [2] (setting [12]) it was 6.5 ± 0.2 µg/mL; in data set [2] (setting [13]), 19.5 µM. The results for the CC50 at 48 h in [3] (setting [14]) and in data set [3] (setting [15]) were 7.8 ± 0.2 µg/mL and 23.3 µM, respectively.
